The subject of data set [1] is ovarian cancer cell (SK-OV-03). Briefly: Growth inhibition of SK-OV-03 (MTT). Type of data set: cell-based. Also on record: IC50 as fraction of that of Imatinib mesylate: unit not given beside the values. As for the experimental part: (§1) In the present experiment, the inhibitory activity of the compound of formula (1) was determined against the growth of K562 cancer cell. First, the cells were allowed to stand in RPMI (Roswell Park Memorial Institute)-1640 medium containing 10% (v/v) fetal bovine serum in an incubator of 37° C. and 5% by volume of CO2. The cancer cells (1000 cells) were transferred to a 96-well plate, and the test compound was diluted. The plate was allowed to stand under the above mentioned conditions for 2 days. After this treatment, to the cells was added 0.2% MTT (3-[4,5-dimethylthiazol-2-yl]-2,5-diphenyltetrazolium bromide) solution, and the resulting mixture was allowed to stand under the constant temperature-condition for 4 hours. The supernatant was removed to leave the resulting crystal. DMSO was added to dissolve the crystal, and the absorbance of the solution was measured at 540 nm. IC50 value was calculated using a computer system according to the following formula: […]
(§2) The test was performed according to the same procedure as Experiment 1.

In another data set the test system is hepatoma cell (SNU-182). Briefly: Growth inhibition of SNU-182 (MTT). The data set is classed as cell-based. Also noted: IC50 as fraction of that of Imatinib mesylate: unit not given beside the values. The note with it: for IC50: Homo sapiens. The procedure:
as §1, §2

Data set [2] concerns hematologic malignancy cell (HL-60). The data set is described as follows: Growth inhibition of HL-60 (MTT). The data set is classed as cell-based. Also noted: IC50 as fraction of that of Imatinib mesylate: unit not given beside the values. Particulars: for IC50: Homo sapiens.
The nature of data set [3]: Acute toxicity test in mice (oral administration). The note with it: both sexes, ICR, mouse, in vivo, 2000 mg/kg; mice, oral. The procedure: (§3) In order to determine the acute toxicity of the compound of the present invention when the compound is orally administered, mice (ICR, 24˜26 g) were fasted for 16 hours. One group consists of 10 males and 10 females. The first group is the control group and physiological saline was administered per oral to this group. The compounds of Examples 2 and 4 were orally administered in a dosage of 2000 mg/kg, the maximum dosage in acute toxicity test, to each test group. […] On the last day of the test, 14th day from the start, the mice were subjected to an autopsy in order to examine changes of the internal organs. […] This means that the compounds of the present invention including those of Examples 2 and 4 are safe in the aspect of acute toxicity.

Data set [4] relates to mice (ICR). Briefly: Acute toxicity test in mice (oral administration). Particulars: mouse, in vivo, po, 2000 mg/kg. As for the experimental part: as §3
Data set [5] deals with oral epithelial cancer cell (KB). Briefly: Growth inhibition of KB (MTT). Type of data set: cell-based. Also on record: IC50 as fraction of that of Imatinib mesylate: unit not given beside the values. The note with it: for IC50: Homo sapiens. As for the experimental part:
as §1, §2

Data set [6] concerns gastric cancer cell (KATO III). Briefly: Growth inhibition of KATO III (MTT). Type of data set: cell-based. Also noted: IC50 as fraction of that of Imatinib mesylate: unit not given beside the values. Particulars: for IC50: Homo sapiens. As for the experimental part: as §1, §2
Data set [7] can be described thus: Acute toxicity test in mice (intravenous administration). Type of data set: in vivo. Particulars: both sexes, ICR, mouse, in vivo, iv; mice, intravenously administered. The procedure: (§4) In this test, the acute toxicity of the compound of the present invention when the compound is intravenously administered was determined on mice (ICR, 24˜26 g). One group consists of 10 males and 10 females. The first group is the control group and physiological saline was intravenously administered to this group. The compound of Example 10 was intravenously administered in dosages of 25, 50, 75, and 100 mg/kg, respectively, to each test group. […] On the last day of the test, 14th day from the start, the mice were subjected to an autopsy in order to examine changes of the internal organs. […] No mouse died in these test groups. Further, in the test group of 100 mg/kg dosage, 8 mice among 10 died within 10 minutes after the administration.

For data set [8], the system named is mice (ICR). The description is as above. The data set is classed as in vivo. As for the experimental part:
as §4

The next data set deals with sarcoma-180. The data set is described as follows: Anti-cancer activity in sarcoma animal model. The data set is classed as in vivo, ICR mouse. Particulars: day 30; for Average tumor weight (Mean ± S.E.): three times at intervals of 4 days, in g (unit assumed). As for the experimental part: The anti-cancer activity against sarcoma-180 was determined using ICR mouse (22˜25 g, male). Sarcoma-180 (0.1 ml; 5×10^7 cells/ml) was hypodermically implanted to the left inguinal area of the mouse. After 72 hours from the hypodermic implantation, physiological saline was intravenously administered to the control group. For the test groups, the compound of Example 10 dissolved in physiological saline in a concentration of 25 or 50 mg/kg was intravenously administered three times at intervals of 4 days. On the 30th day from the implantation of the tumor cell, the mice were sacrificed to take out the induced solid tumors. The solid tumors were weighed, the average weight of the tumors was obtained, and the percent inhibition ratio was calculated according to the following formula:
Inhibition ratio (I.R.) (%)=[(Cw−Tw)/Cw]×100
I.R. represents the percent inhibition ratio,
Cw represents the average weight of tumor of the control group; and
Tw represents the average weight of tumor of the test group.

The structures appear in SMILES notation. Where only a bound is given, the exact number is not on record here.

Regarding `CS(=O)(=O)O.Cc1ccc(NC(=O)c2ccc(CNN3CCN(C)CC3)cc2)cc1Nc1nccc(-c2cccnc2)n1` [Example 4, 4-(4-methylpiperazin-1-ylaminomethyl)-N-[4-methyl-3-(4-(pyridin-3-yl)pyrimidin-2-yl)aminophenyl]benzamide methanesulfonate], the IC50 in data set [1] is > 50 µg/mL; in the data set on hepatoma cell (SNU-182), 48 µg/mL; in [2], 27.8 µg/mL; in data set [5], 35 µg/mL; in data set [6] it was 32.4 µg/mL. Further, the median lethal dose (LD50) at 14 days in data set [3] is ≥ 2000 mg/kg. The “Clinical conditions and autopsy” value in the data set on mice (ICR) [4] is “neither abnormal response nor specific autopsy result was observed”. Besides, the “Mortality during the test period” value in the data set on mice (ICR) [4] is on record as “no mouse died”.

On to `CN1CCCN(Cc2ccc(C(=O)Nc3ccc(Nc4nccc(-c5cccnc5)n4)cc3)cc2)CC1.CS(=O)(=O)O` [Example 10, 4-(4-methylhomopiperazin-1-ylmethyl)-N-[4-(4-(pyridin-3-yl)pyrimidin-2-yl)aminophenyl]benzamide methanesulfonate], for which the IC50 was 25.5 µg/mL in data set [1]; 7.94 µg/mL in the data set on hepatoma cell (SNU-182); 4.28 µg/mL in [2]; 8.99 µg/mL in [5]; 3.26 µg/mL in data set [6]. For the same molecule, the “IC50 as fraction of that of Imatinib mesylate” value in [1] is listed as 1/2; with hepatoma cell (SNU-182), 1/5; in data set [2] it was 1/8; in data set [5] it was 1/5; in data set [6], 1/10. For the same molecule, the LD50 at 14 days in data set [7] lay in the range of 75 to 100 mg/kg. For the same molecule, the “Clinical conditions and autopsy” value with mice (ICR) [8] (25 mg/kg i.v., 14 days) is “neither abnormal response nor specific autopsy”. In the data set on mice (ICR) [8] (100 mg/kg i.v., within 10 minutes after the administration), this molecule displayed a Mice died of 8 mice among 10. In the data set with mice (ICR) [8] (50 and 75 mg/kg i.v.), the Clinical conditions entry is “weak trembling immediately after the administration”. The Mortality entry with mice (ICR) [8] (50 and 75 mg/kg i.v.) is “No mouse died”. Moreover, the “Time to recovery from trembling” value in the data set on mice (ICR) [8] (50 and 75 mg/kg i.v.) was ≤ 1 h. For the same molecule, the results for the “Percent Inhibition Ratio (I.R.)” value in the data set with sarcoma-180 (25 mg/kg i.v.) and with sarcoma-180 (50 mg/kg i.v.) were 36.1% and 63.0%, respectively. Moreover, the “Average tumor weight (Mean ± S.E.)” value in the data set with sarcoma-180 (25 mg/kg i.v.) is listed as 2.09 ± 1.4; in the data set with sarcoma-180 (50 mg/kg i.v.) it was 1.21 ± 1.2.
